SMILES strings stand for the structures.

A word on the IC50: it is the concentration needed to halve the response being measured.

The test system of experiment [1] is Kuramochi cells labeled with mApple-H2B. Briefly: IncuCyte Cell Proliferation Assay. The note with it: 72 h. In kind it is cell-based. The method, boiled down:
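Cells imaged at 0 and 72 h after compound treatment (10 points, ½ log dilution, 20 μM top), with fluorescent nuclei counted. Fold change in count was normalized to DMSO wells and fitted to dose-response curves to give GI50.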

The subject of another experiment is Kuramochi cells. Put plainly: BrdU Cell Proliferation Assay. Conditions: read-out: BrdU - KURAMOCHI.1: IC50. It is filed as cell-based. Summed up:
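Kuramochi cells were seeded at 2,000 cells/well, adhered overnight, then treated with a 10-point, 3-fold compound dilution series for 4 days. Proliferation was measured by a 1-hour BrdU pulse, anti-BrdU peroxidase colorimetric ELISA and 450 nm absorbance. Values were background-subtracted and normalized to DMSO wells.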

On to `CO[C@H](C)[C@H](NC(=O)[C@@H]1CN(C(=O)c2cnn(Cc3ccccc3)c2)CC12CN(C(=O)[C@H]1CC1(C)C)C2)C(=O)N1CCC(CN)CC1` [I-306], for which the figures for the IC50 (in experiment [1]; in the experiment with Kuramochi cells) were more than 20 µM and more than 10 µM, respectively.
For `CNC(=O)[C@@H](NC(=O)[C@@H]1CN(C(=O)c2cncs2)CC12CN(C(=O)[C@H]1CC1(C)C)C2)C1(OCC2CCCCC2)CC1` [I-401] the same measures were 0.5 to 5 µM and 0.5 to 5 µM.
The corresponding values for `CNC(=O)[C@@H](NC(=O)[C@H]1CN(C(=O)c2cnc(Cl)s2)CC12CN(C(=O)[C@H]1CC1(C)C)C2)[C@@H](C)OCC1CCCCC1` [I-189B] are more than 20 µM and more than 10 µM.
The corresponding values for `CC1(C)C[C@@H]1C(=O)N1CC2(CN(C(=O)c3cnn(Cc4ccccc4)c3)C[C@H]2C(=O)NCc2cccnn2)C1` [I-359] are more than 20 µM and more than 10 µM.
In the case of `COC[C@H]1CCCN(C(=O)[C@@H](NC(=O)[C@@H]2CN(C(=O)c3cncs3)CC23CN(C(=O)[C@H]2CC2(C)C)C3)[C@@H](C)OCc2ccc(Cl)cc2F)C1` [I-317], the IC50 (in experiment [1]; in the experiment with Kuramochi cells) was 0.5 to 5 µM each time.
On to `CNC(=O)[C@@H](NC(=O)[C@@H]1CN(C(=O)c2cncs2)CC12CN(C(=O)[C@H]1CC1(C)C)C2)[C@@H](C)OC[C@H]1CC[C@@H](C)CC1` [I-354], for which the values for the concentration for half-maximal inhibition (IC50) (in experiment [1]; in the experiment on Kuramochi cells) were not above 0.5 µM and 0.5 to 5 µM, respectively.
In the case of `CNC(=O)[C@@H](NC(=O)[C@@H]1CN(C(=O)c2cnn(Cc3ccccc3)c2)CC12CN(CC(=O)O)C2)[C@@H](C)OCC1CCCCC1` [I-294, 2-((S)-6-(1-benzyl-1H-pyrazole-4-carbonyl)-8-(((2S,3R)-3-(cyclohexylmethoxy)-1-(methylamino)-1-oxobutan-2-yl)carbamoyl)-2,6-diazaspiro[3.4]octan-2-yl)acetic acid], the values for the IC50 (in experiment [1]; in the experiment with Kuramochi cells) were more than 20 µM and more than 10 µM, respectively.
In the case of `CNC(=O)[C@@H](NC(=O)[C@@H]1CN(C(=O)c2cnc(CC3CC3)s2)CC12CN(C(=O)[C@H]1CC1(C)C)C2)[C@@H](C)OCC1CCCCC1` [I-177A], the values for the IC50 (in experiment [1]; in the experiment on Kuramochi cells) were 5 to 20 µM and 0.5 to 5 µM, respectively.
For `CC1(C)C[C@@H]1C(=O)N1CC2(CN(C(=O)c3cncs3)C[C@@H]2C(=O)N[C@@H](COCC2CCCCC2)C(=O)N2CCCCC2)C1` [I-293] the same measures were more than 20 µM and more than 10 µM.
In the case of `CO[C@H]1COCC[C@H]1NC(=O)[C@@H]1CN(C(=O)c2cnn(Cc3ccccc3)c2)CC12CN(C(=O)[C@H]1CC1(C)C)C2` [I-134A], the half-maximal inhibitory concentration (IC50) was more than 20 µM in experiment [1] and more than 10 µM with Kuramochi cells.
As for `CNC(=O)[C@@H](NC(=O)[C@@H]1CN(C(=O)c2sc(COC)nc2C)CC12CN(C(=O)[C@H]1CC1(C)C)C2)[C@@H](C)OCC1CCCCC1` [I-162A], the IC50 lay in the range of 5 to 20 µM in experiment [1] and 0.5 to 5 µM with Kuramochi cells.
For `C[C@@H](OCC1CCCCC1)[C@H](NC(=O)[C@@H]1CN(C(=O)c2cncs2)CC12CN(C(=O)[C@H]1CC1(C)C)C2)C(=O)N1CCOCC1` [I-198] the same measures were not above 0.5 µM and not above 0.5 µM.
For `COC[C@H]1CCCN(C(=O)[C@@H](NC(=O)[C@@H]2CN(C(=O)c3cncs3)CC23CN(C(=O)[C@H]2CC2(C)C)C3)[C@@H](C)OCc2cccc(F)c2)C1` [I-322] the same measures were 0.5 to 5 µM and 0.5 to 5 µM.
Turning to `CNC(=O)[C@@H](NC(=O)[C@@H]1CN(C(=O)c2nncs2)CC12CN(C(=O)[C@H]1CC1(C)C)C2)[C@@H](C)OCC1CCCCC1` [I-246], the 50% inhibitory concentration (IC50) in experiment [1] is 5 to 20 µM; in the experiment on Kuramochi cells it was 0.5 to 5 µM.
The corresponding values for `C[C@@H](OCC1CCCCC1)[C@H](NC(=O)[C@@H]1CN(C(=O)c2cnn(Cc3ccccc3)c2)CC12CN(C(=O)[C@H]1CC1(C)C)C2)C(=O)N1CCC(F)(F)CC1` [I-149A] are not above 0.5 µM and not above 0.5 µM.
The corresponding values for `COC[C@H]1CCCN(C(=O)[C@@H](NC(=O)[C@@H]2CN(C(=O)c3cncs3)CC23CN(C(=O)[C@H]2CC2(C)C)C3)[C@@H](C)OCc2ccc(F)cc2)C1` [I-318] are 0.5 to 5 µM and 0.5 to 5 µM.
The corresponding values for `COC[C@H]1CCCN(C(=O)[C@@H](NC(=O)[C@@H]2CN(C(=O)c3cncs3)CC23CN(C(=O)[C@H]2CC2(C)C)C3)[C@@H](C)OC[C@H]2CC[C@H](OC)CC2)C1` [I-402] are 0.5 to 5 µM and 0.5 to 5 µM.
As for `CC(O[C@H](C)[C@H](NC(=O)[C@@H]1CN(C(=O)c2cncs2)CC12CN(C(=O)[C@H]1CC1(C)C)C2)C(=O)N1CCCCC1)C1CCCCC1` (stereo partly drawn) [I-284, (8S)—N-((2S,3R)-3-(1-cyclohexylethoxy)-1-oxo-1-(piperidin-1-yl)butan-2-yl)-2-((S)-2,2-dimethylcyclopropane-1-carbonyl)-6-(thiazole-5-carbonyl)-2,6-diazaspiro[3.4]octane-8-carboxamide], the 50% inhibitory concentration (IC50) (in experiment [1]; in the experiment with Kuramochi cells) was 0.5 to 5 µM throughout.
For `CNC(=O)[C@@H](NC(=O)C1CN(C(=O)c2cnn(Cc3ccccc3)c2)CC12CN(C(=O)[C@H]1CC1(C)C)C2)[C@@H](C)OCc1ccccn1` (stereo partly shown) [I-257], the values for the IC50 (in experiment [1]; in the experiment with Kuramochi cells) were more than 20 µM and more than 10 µM, respectively.
For `COC[C@H]1CCCN(C(=O)[C@@H](NC(=O)[C@@H]2CN(C(=O)c3cncs3)CC23CN(C(=O)[C@H]2CC2(C)C)C3)[C@@H](C)O[C@@H](C)C2CCCCC2)C1` [I-369] the same measures were 0.5 to 5 µM and 0.5 to 5 µM.
The corresponding values for `CC1(C)C[C@@H]1C(=O)N1CC2(CN(C(=O)c3cnn(Cc4ccccc4)c3)C[C@H]2C(=O)N[C@H]2C[C@@H]2c2cccc(Cl)c2)C1` [I-140A] are 5 to 20 µM and more than 10 µM.
On to `CNC(=O)C(NC(=O)[C@@H]1CN(C(=O)c2cn[nH]c2)CC12CN(C(=O)[C@H]1CC1(C)C)C2)C(O)Cc1ccccc1` (stereo partly shown) [I-298], for which the values for the IC50 (in experiment [1]; with Kuramochi cells) were more than 20 µM and more than 10 µM, respectively.
For `CC1(C)C[C@@H]1C(=O)N1CC2(CN(C(=O)c3cnn(Cc4ccccc4)c3)C[C@@H]2C(=O)NCc2nnc[nH]2)C1` [I-191B] the same measures were more than 20 µM and more than 10 µM.
The corresponding values for `C[C@@H](OCC1CCCCC1)[C@H](NC(=O)[C@@H]1CN(C(=O)c2cnn(Cc3ccccc3)c2)CC12CN(C(=O)[C@H]1CC1(C)C)C2)C(=O)N1CCOCC1` [I-152A] are not above 0.5 µM and not above 0.5 µM.
The corresponding values for `C[C@@H](OCC1CCCCC1)[C@H](NC(=O)[C@@H]1CN(C(=O)c2cnn(Cc3ccccc3)c2)CC12CN(C(=O)[C@H]1CC1(C)C)C2)C(=O)N1CC(C)(C)C1` [I-153A] are not above 0.5 µM and not above 0.5 µM.
With `CNC(=O)[C@@H](NC(=O)[C@@H]1CN(C(=O)c2cncs2)CC12CN(C(=O)[C@H]1CC1(C)C)C2)[C@@H](C)OCC12CCC(CC1)OC2` [I-342], the IC50 (in experiment [1]; in the experiment on Kuramochi cells) was 0.5 to 5 µM throughout.
`CNC(=O)C(NC(=O)[C@@H]1CN(C(=O)c2cncs2)CC12CN(C(=O)[C@H]1CC1(C)C)C2)C(O)Cc1ccccc1` (stereo partly shown) [I-356]: the values for the IC50 (in experiment [1]; in the experiment on Kuramochi cells) were more than 20 µM and more than 10 µM, respectively.
The corresponding values for `C[C@@H](OCC1CCC(F)(F)CC1)[C@H](NC(=O)[C@@H]1CN(C(=O)c2cncs2)CC12CN(C(=O)[C@H]1CC1(C)C)C2)C(=O)N1CCC[C@H](COC(F)(F)F)C1` [I-326] are not above 0.5 µM and not above 0.5 µM.
With `C[C@@H](OCC1CCCCC1)[C@H](NC(=O)C1CN(C(=O)c2cnn(Cc3ccccc3)c2)CC12CN(C(=O)[C@H]1CC1(C)C)C2)C(=O)N1CCOCC1` (stereo partly shown) [I-152 mixture], the IC50 (in experiment [1]; in the experiment with Kuramochi cells) was not above 0.5 µM each time.
As for `C[C@@H](OCC1CCCCC1)[C@H](NC(=O)[C@@H]1CN(C(=O)c2cnn(Cc3ccccc3)c2)CC12CN(C(=O)[C@H]1CC1(C)C)C2)C(C)(C)O` [I-281], the values for the half-maximal inhibitory concentration (IC50) (in experiment [1]; with Kuramochi cells) were not above 0.5 µM and 0.5 to 5 µM, respectively.
For `Cc1ccc(CNC(=O)[C@@H]2CN(C(=O)c3cnn(Cc4ccccc4)c3)CC23CN(C(=O)[C@H]2CC2(C)C)C3)cc1` [I-363] the same measures were 5 to 20 µM and 5 to 10 µM.
Regarding `Cc1cc(C(=O)N2CC(C(=O)N[C@H](C(=O)N3CCCCC3)[C@@H](C)OCC3CCCCC3)C3(C2)CN(C(=O)[C@H]2CC2(C)C)C3)[nH]n1` (stereo partly shown) [I-264], the half-inhibitory concentration (IC50) in experiment [1] is more than 20 µM; with Kuramochi cells, more than 10 µM.
Consider `COC[C@H]1CCCN(C(=O)[C@@H](NC(=O)[C@@H]2CN(C(=O)c3cncs3)CC23CN(C(=O)C(C)(C)C2CC2)C3)[C@@H](C)OC(C)C2CCC(F)(F)CC2)C1` (stereo partly shown) [I-399], for which the IC50 (in experiment [1]; with Kuramochi cells) was 0.5 to 5 µM throughout.
On to `CNC(=O)[C@@H](NC(=O)[C@@H]1CN(C(=O)c2cnn(Cc3ccccc3)c2)CC12CN(C(=O)[C@H]1CC1(C)C)C2)[C@@H](C)OC[C@H]1CC[C@@H](O)CC1` [I-424], for which the IC50 is more than 20 µM in experiment [1] and more than 10 µM in the experiment on Kuramochi cells.
For `C[C@@H](OCC1CCC(F)(F)CC1)[C@H](NC(=O)[C@H]1CN(C(=O)c2cnn(Cc3ccc(F)cc3)c2)CC12CN(C(=O)[C@H]1CC1(C)C)C2)C(=O)N1CCC(F)(F)CC1` [I-164B] the same measures were 0.5 to 5 µM and 0.5 to 5 µM.
For `CNC(=O)[C@@H](NC(=O)[C@@H]1CN(C(=O)c2cncs2)CC12CN(C(=O)[C@H]1CC1(C)C)C2)[C@@H](C)OCC1CCCCC1` [I-129A] the same measures were 0.5 to 5 µM and 0.5 to 5 µM.
For `C[C@@H](OCC1CCCCC1)[C@H](NC(=O)C1CN(C(=O)c2cnn(Cc3ccccc3)c2)CC12CN(C(=O)[C@H]1CC1(C)C)C2)C(=O)N1CC2(CCC2)C1` (stereo partly shown) [I-107] the same measures were not above 0.5 µM and not above 0.5 µM.
For the compound `C[C@@H](OCC1CCCCC1)[C@H](NC(=O)[C@@H]1CN(C(=O)c2cnn(Cc3ccccc3)c2)CC12CN(C(=O)[C@H]1CC1(C)C)C2)C(=O)N1CCCCC1` [I-194A, (S)-6-(1-benzyl-1H-pyrazole-4-carbonyl)-N-((2S,3R)-3-(cyclohexylmethoxy)-1-oxo-1-(piperidin-1-yl)butan-2-yl)-2-((S)-2,2-dimethylcyclopropane-1-carbonyl)-2,6-diazaspiro[3.4]octane-8-carboxamide], the IC50 (in experiment [1]; in the experiment with Kuramochi cells) was not above 0.5 µM in each case.
